Measurements reported in patent publication US10189813B2, “Formylated N-heterocyclic derivatives as FGFR4 inhibitors” (NOVARTIS AG, priority 2015, dated 2019).
Where two headings read alike, the source gives them in different places.

Tests used:
[1] = target: T1, FGFR4 (GST-FGFR4(388-802)) (Homo sapiens, UniProt P22455); test: In-vitro biochemical kinase assay for FGFR4 (Caliper mobility shift); settings: 60 minutes at 30° C.
T1 construct: GST-FGFR4(388-802); GST (N); made in house; host or cells: insect cells
T1 sequence (P22455 388-802): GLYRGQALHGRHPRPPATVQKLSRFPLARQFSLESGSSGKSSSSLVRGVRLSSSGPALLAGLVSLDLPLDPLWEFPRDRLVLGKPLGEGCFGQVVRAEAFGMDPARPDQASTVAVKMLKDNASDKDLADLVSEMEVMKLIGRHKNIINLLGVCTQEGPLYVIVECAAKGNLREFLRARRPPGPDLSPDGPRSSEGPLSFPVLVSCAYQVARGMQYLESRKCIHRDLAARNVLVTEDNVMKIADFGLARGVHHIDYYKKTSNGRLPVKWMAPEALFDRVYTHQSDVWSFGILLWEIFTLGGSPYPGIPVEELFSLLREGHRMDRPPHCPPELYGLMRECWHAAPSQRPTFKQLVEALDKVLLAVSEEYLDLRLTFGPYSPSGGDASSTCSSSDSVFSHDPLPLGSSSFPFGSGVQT
Description: In-Vitro Biochemical Kinase Assays for FGFR4
All assays were performed in 384 well microtiter plates. Each assay plate contained 8-point serial dilutions for 40 test compounds, as well as four 8-point serial dilutions of staurosporine as reference compound, plus 16 high and 16 low controls.
(§1) Liquid handling and incubation steps were done on an Innovadyne Nanodrop Express equipped with a robotic arm (Thermo CatX, Caliper Twister II) and an incubator (Liconic STX40, Thermo Cytomat 2C450). The assay plates were prepared by addition of 50 nI per well of compound solution in 90% DMSO. […] Kinase reactions were incubated at 30° C. for 60 minutes and subsequently terminated by addition of 16 μl per well of stop solution (100 mM HEPES pH 7.5, 5% DMSO, 0.1% Caliper coating reagent, 10 mM EDTA, and 0.015% Brij35). Plates with terminated kinase reactions were transferred to the Caliper LC3000 workstations for reading. Phosphorylated and unphosphorylated peptides were separated using the Caliper microfluidic mobility shift technology. Briefly, samples from terminated kinase reactions were applied to the chip. Analytes are transported through the chip by constant buffer flow and the migration of the substrate peptide is monitored by the fluorescence signal of its label. Phosphorylated peptide (product) and unphosphorylated peptide (substrate) are separated in an electric field by their charge/mass ratio. Kinase activities were calculated from the amounts of formed phospho-peptide. IC50 values were determined from percent inhibition values at different compound concentrations by non-linear regression analysis.
Preparation of Compound Dilutions
Test compounds were dissolved in DMSO (10 mM) and transferred into 1.4 mL flat bottom or V-shaped Matrix tubes carrying a unique 2D matrix. The stock solutions were stored at […] if not used immediately. For the test procedure the vials were defrosted and identified by a scanner whereby a working sheet was generated that guided the subsequent working steps.
Compound dilutions were made in 96 well plates. This format enabled the assay of maximally 40 individual test compounds at 8 concentrations (single points) including 4 reference compounds. The dilution protocol included the production of “pre-dilution plates”, “master plates” and “assay plates”.
96 polypropylene well plates were used as pre-dilution plates. A total of 4 pre-dilution plates were prepared including 10 test compounds each on the plate positions A1-A10, one standard compound at A11 and one DMSO control at A12. All dilution steps were done on a HamiltonSTAR robot.
These plates were used directly for the assay which was performed in a total volume of 9.05 μL.

[2] = target: BaF3-Tel-FGFR4 cells (TEL fused to cytoplasmic domain of FGFR4) (Homo sapiens, UniProt P22455); test: In vitro cellular kinase assay for FGFR4 (BaF3-Tel-FGFR4, MSD capture ELISA of tyrosine phosphorylation); settings: 1 hour incubation
BaF3-Tel-FGFR4 cells (TEL fused to cytoplasmic domain of FGFR4), sequence (P22455 with tags, fused parts or gaps): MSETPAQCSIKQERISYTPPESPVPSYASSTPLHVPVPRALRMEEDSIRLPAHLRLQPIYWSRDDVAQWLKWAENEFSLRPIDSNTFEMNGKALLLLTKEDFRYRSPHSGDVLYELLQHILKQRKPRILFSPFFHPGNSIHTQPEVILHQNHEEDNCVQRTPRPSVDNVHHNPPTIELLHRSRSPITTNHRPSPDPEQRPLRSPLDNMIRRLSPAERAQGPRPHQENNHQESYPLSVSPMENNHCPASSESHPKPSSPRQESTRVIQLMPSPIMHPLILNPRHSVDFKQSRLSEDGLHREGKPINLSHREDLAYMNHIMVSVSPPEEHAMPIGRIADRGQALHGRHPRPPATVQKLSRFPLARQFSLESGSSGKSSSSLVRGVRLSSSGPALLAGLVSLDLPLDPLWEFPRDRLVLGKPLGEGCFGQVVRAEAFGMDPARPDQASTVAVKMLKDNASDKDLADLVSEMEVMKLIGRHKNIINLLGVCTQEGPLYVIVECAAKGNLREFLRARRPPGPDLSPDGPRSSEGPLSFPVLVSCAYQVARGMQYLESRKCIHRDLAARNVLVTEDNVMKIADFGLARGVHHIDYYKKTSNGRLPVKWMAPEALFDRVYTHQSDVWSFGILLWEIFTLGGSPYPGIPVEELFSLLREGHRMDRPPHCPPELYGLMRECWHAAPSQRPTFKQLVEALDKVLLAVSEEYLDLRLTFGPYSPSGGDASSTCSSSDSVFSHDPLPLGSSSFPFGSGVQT

[3] = tested on: HuH-7 hepatocellular carcinoma cells; test: CellTiter Glo (CTG) proliferation/viability assay; type: cell-based; settings: HuH-7 cells, 3 days, half-maximal growth inhibition (GI50), read-out: HUH7 proliferation CTG
Description: CellTiter Glo (CTG) Assay:
The functional effect of compounds on cell proliferation is assessed using HuH-7 hepatocellular carcinoma cells obtained from the Japanese Collection of Research Bioresources Cell Bank (Cat# JCRB0403) and cultured in the vendor-recommended medium (DMEM high glucose (Amimed Cat#1-26F01-I), 10% foetal calf serum (Invitrogen Cat#16140-071), 1 mM sodium pyruvate (Amimed Cat#5-60F00-H), 1× Penicillin/Streptomycin (Amimed Cat#4-01F00-H)) at 37° C. in a humidified 5% CO2 incubator. Compound-mediated suppression of cell proliferation/viability is assessed by quantification of cellular ATP levels using the CellTiter-Glo (CTG) reagent (Promega, Cat# G7573). Briefly, cells are seeded at 3′000 cells/well/80 μl fresh medium into tissue-culture-treated 96-well plates (Costar Cat#3904), followed by addition of 20 μl medium containing compound dilutions at 5-fold their final intended concentration. Dose-response effects are assessed by 3-fold serial dilutions of the test compound, starting at 10 μM. Following incubation of the cells for 3 days at 37° C. and 5% CO2, the effect of inhibitors on cell viability is quantified following addition of 50 μl CTG and luminescence measurement (integration time: 500 ms) as per vendor manual, using a correspondingly equipped multi-mode plate reader (M200Pro, TECAN, Switzerland). For data analysis, the assay background value determined in wells containing medium, but no cells, is subtracted from all data points. To enable differentiation of cytotoxic from cytostatic compounds, the number of viable cells is assessed relative to that observed at the time of compound addition using a separate cell plate (day 0). The effect of a particular test compound concentration on cell proliferation/viability is expressed as percentage of the background- and day 0-corrected luminescence reading obtained for cells treated with vehicle only (DMSO, 0.1% f.c.), which is set as 100%, whereas the luminescence reading for wells containing medium only, but no cells, is set as −100%. Compound concentrations leading to half-maximal growth inhibition (GI50) are determined using standard four parameter curve fitting (XLfit 5.2., IDBS, UK).

FGFR3 (411-806) = target: T2, FGFR3 (411-806) (Homo sapiens, UniProt P22607); test: In vitro biochemical assay for FGFR3
T2 construct: FGFR3 (411-806)
T2 sequence (P22607 411-806): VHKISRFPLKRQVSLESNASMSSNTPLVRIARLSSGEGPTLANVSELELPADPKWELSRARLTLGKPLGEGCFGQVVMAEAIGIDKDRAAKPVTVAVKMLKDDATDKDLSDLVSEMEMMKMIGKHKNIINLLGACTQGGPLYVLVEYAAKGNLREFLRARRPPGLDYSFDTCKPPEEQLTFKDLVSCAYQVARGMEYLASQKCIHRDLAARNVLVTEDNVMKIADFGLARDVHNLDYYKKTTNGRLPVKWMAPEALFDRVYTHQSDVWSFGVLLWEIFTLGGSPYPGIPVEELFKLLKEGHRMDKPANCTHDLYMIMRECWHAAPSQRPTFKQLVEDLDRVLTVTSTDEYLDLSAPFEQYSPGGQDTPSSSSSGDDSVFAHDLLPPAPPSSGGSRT
Description: as §1
(§2) In vitro biochemical assays for FGFR1 (407-822), FGFR2 (406-821) and FGFR3 (411-806) were conducted in a similar manner to the in vitro biochemical assay for FGFR4 described above, using the indicated portions of the kinase domains. The following examples all produced IC50 values >10000 nM in the biochemical FGFR1, FGFR2 and FGFR3 assays: 2, 3, 4, 11, 13, 16, 17, 18, 20, 28, 30.

FGFR2 (406-821) = target: T3, FGFR2 (406-821) (Homo sapiens, UniProt P21802); test: In vitro biochemical assay for FGFR2
T3 construct: FGFR2 (406-821)
T3 sequence (P21802 406-821): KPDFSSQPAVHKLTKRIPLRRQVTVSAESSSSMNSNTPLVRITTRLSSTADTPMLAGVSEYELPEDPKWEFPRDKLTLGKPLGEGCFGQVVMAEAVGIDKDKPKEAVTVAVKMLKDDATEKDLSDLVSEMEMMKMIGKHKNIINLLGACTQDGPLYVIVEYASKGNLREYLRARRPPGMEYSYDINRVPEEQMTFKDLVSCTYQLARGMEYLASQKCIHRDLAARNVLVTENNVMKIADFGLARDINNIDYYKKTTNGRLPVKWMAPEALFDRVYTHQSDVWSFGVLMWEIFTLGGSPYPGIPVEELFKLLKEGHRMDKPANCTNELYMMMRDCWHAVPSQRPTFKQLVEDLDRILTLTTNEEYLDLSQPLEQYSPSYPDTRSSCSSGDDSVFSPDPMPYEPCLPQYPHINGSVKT
Description: as §1, §2

FGFR1 (407-822) = target: T4, FGFR1 (407-822) (Homo sapiens, UniProt P11362); test: In vitro biochemical assay for FGFR1
T4 construct: FGFR1 (407-822)
T4 sequence (P11362 407-822): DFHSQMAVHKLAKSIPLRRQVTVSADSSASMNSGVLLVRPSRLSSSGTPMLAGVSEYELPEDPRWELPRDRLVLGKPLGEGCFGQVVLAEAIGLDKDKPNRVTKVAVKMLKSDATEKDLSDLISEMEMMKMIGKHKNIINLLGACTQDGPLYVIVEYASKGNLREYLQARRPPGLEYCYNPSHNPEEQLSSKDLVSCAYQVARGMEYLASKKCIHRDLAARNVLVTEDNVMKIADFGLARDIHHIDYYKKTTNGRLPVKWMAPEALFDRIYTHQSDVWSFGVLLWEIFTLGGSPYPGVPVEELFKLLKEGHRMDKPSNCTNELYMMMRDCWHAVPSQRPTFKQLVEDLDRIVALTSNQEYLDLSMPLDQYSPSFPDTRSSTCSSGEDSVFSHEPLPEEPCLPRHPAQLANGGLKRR
Description: as §1, §2

Compound	IC50 [1] [nM]	IC50 [2] [nM]	IC50 ([3]; Homo sapiens, Huh-7, 72 h) [nM]	IC50 (FGFR3 (411-806)) [nM]	IC50 (FGFR2 (406-821)) [nM]	IC50 (FGFR1 (407-822)) [nM]	IC50 [3] [nM]
CC(C)Oc1cc(NC(=O)N(C)c2ccc(CN3CCCC3)c(C=O)n2)ncc1C#N [Example 29, 3-(5-cyano-4-isopropoxypyridin-2-yl)-1-(6-formyl-5-(pyrrolidin-1-ylmethyl)pyridin-2-yl)-1-methylurea]	250	> 3000	> 3000	–	–	–	–
COCCNc1cc(NC(=O)N(C)c2cccc(C=O)n2)ncc1C#N [Example 2, 3-(5-cyano-4-((2-methoxyethyl)amino)pyridin-2-yl)-1-(6-formylpyridin-2-yl)-1-methylurea]	–	–	–	> 10000	> 10000	> 10000	–
COCCNc1cc(NC(=O)N(CC2CCOC2)c2ccc(CO)c(C=O)n2)ncc1C#N (racemic) [Example 5, 3-(5-cyano-4-((2-methoxyethyl)amino)pyridin-2-yl)-1-(6-formyl-5-(hydroxymethyl)pyridin-2-yl)-1-((tetrahydrofuran-3-yl)methyl)urea]	66	234	–	–	–	–	–
CN(C(=O)Nc1ccc(C#N)cn1)c1ccc(CN2CCCC2=O)c(C=O)n1 [Example 19, 3-(5-cyanopyridin-2-yl)-1-(6-formyl-5-((2-oxopyrrolidin-1-yl)methyl)pyridin-2-yl)-1-methylurea]	78	–	–	–	–	–	–
COC1CCN(Cc2ccc(N(C)C(=O)Nc3cc(OC(C)C)c(C#N)cn3)nc2C=O)C1 (racemic) [Example 26, 3-(5-cyano-4-isopropoxypyridin-2-yl)-1-(6-formyl-5-((3-methoxypyrrolidin-1-yl)methyl)pyridin-2-yl)-1-methylurea]	17	501	> 3000	–	–	–	–
COCCNc1cc(NC(=O)N(CCOC)c2cccc(C=O)n2)ncc1C#N [Example 3, 3-(5-cyano-4-((2-methoxyethyl)amino)pyridin-2-yl)-1-(6-formylpyridin-2-yl)-1-(2-methoxyethyl)urea]	–	–	–	> 10000	> 10000	> 10000	–
COCCNc1cc(Nc2nccn2-c2ccc(-c3cnn(C)c3)c(C=O)n2)ncc1C(F)(F)F [Example 27, 6-(2-((4-((2-methoxyethyl)amino)-5-(trifluoromethyl)pyridin-2-yl)amino)-1H-imidazol-1-yl)-3-(1-methyl-1H-pyrazol-4-yl)picolinaldehyde]	340	568	> 3000	–	–	–	–
N#Cc1ccc(Nc2ccccc2-c2cccc(C=O)n2)nc1 [Example 1, 6-((2-(6-formylpyridin-2-yl)phenyl)amino)nicotinonitrile]	330	–	–	–	–	–	–

More lines, in order of falling IC50 [1], values ahead:

IC50 [1] [nM]	IC50 [2] [nM]	IC50 ([3]; Homo sapiens, Huh-7, 72 h) [nM]	IC50 (FGFR3 (411-806)) [nM]	IC50 (FGFR2 (406-821)) [nM]	IC50 (FGFR1 (407-822)) [nM]	IC50 [3] [nM]	Compound
8.6	33	2140	–	–	–	–	CCN(C(=O)Nc1cc(OC(C)C)c(C#N)cn1)c1ccc(-c2cnn(C)c2)c(C=O)n1 [Example 12, 3-(5-cyano-4-isopropoxypyridin-2-yl)-1-ethyl-1-(6-formyl-5-(1-methyl-1H-pyrazol-4-yl)pyridin-2-yl)urea]
6.3	–	–	–	–	–	–	CC(C)Oc1cc(NC(=O)N(C)c2ccc(-c3cnn(C)c3)c(C=O)n2)ncc1C#N [Example 25, 3-(5-cyano-4-isopropoxypyridin-2-yl)-1-(6-formyl-5-(1-methyl-1H-pyrazol-4-yl)pyridin-2-yl)-1-methylurea]
5.7	46	> 3000	–	–	–	1800	CN(C(=O)Nc1cc(NCC(C)(C)O)c(C#N)cn1)c1ccc(-c2cnn(C)c2)c(C=O)n1 [Example 22, 3-(5-cyano-4-((2-hydroxy-2-methylpropyl)amino)pyridin-2-yl)-1-(6-formyl-5-(1-methyl-1H-pyrazol-4-yl)pyridin-2-yl)-1-methylurea]
5.6	17	–	> 10000	> 10000	> 10000	–	CCN(C(=O)Nc1cc(NC(C)C)c(C#N)cn1)c1ccc(-c2cnn(C)c2)c(C=O)n1 [Example 11, 3-(5-cyano-4-(isopropylamino)pyridin-2-yl)-1-ethyl-1-(6-formyl-5-(1-methyl-1H-pyrazol-4-yl)pyridin-2-yl)urea]
5.1	223	–	–	–	–	–	COCCNc1cc(NC(=O)N(C[C@H]2CCOC2)c2cccc(C=O)n2)ncc1C#N (single isomer, unassigned) [Example 7]
4.8	6.9	878	–	–	–	–	CC(C)Oc1cc(NC(=O)N(C)c2ccc(CN3CCN(C)CC3=O)c(C=O)n2)ncc1C#N [Example 21, 3-(5-cyano-4-isopropoxypyridin-2-yl)-1-(6-formyl-5-((4-methyl-2-oxopiperazin-1-yl)methyl)pyridin-2-yl)-1-methylurea]
4.7	140	–	–	–	–	–	COCCNc1cc(NC(=O)N(C[C@@H]2CCOC2)c2cccc(C=O)n2)ncc1C#N (single isomer, unassigned) [Example 6]
3.6	–	–	–	–	–	–	CC(C)Nc1cc(NC(=O)N(C)c2ccc(-c3cnn(C)c3)c(C=O)n2)ncc1C#N [Example 14, 3-(5-cyano-4-(isopropylamino)pyridin-2-yl)-1-(6-formyl-5-(1-methyl-1H-pyrazol-4-yl)pyridin-2-yl)-1-methylurea]
1.9	268	–	> 10000	> 10000	> 10000	–	COCCNc1cc(NC(=O)N(CC2CCOC2)c2cccc(C=O)n2)ncc1C#N (racemic) [Example 4, 3-(5-cyano-4-((2-methoxyethyl)amino)pyridin-2-yl)-1-(6-formylpyridin-2-yl)-1-((tetrahydrofuran-3-yl)methyl)urea]
1.6	737	–	–	–	–	–	CC(C)Oc1cc(NC(=O)N(C)c2ccc(C(=O)O)c(C=O)n2)ncc1C#N [Example 8, 6-(3-(5-cyano-4-isopropoxypyridin-2-yl)-1-methylureido)-2-formylnicotinic acid]
0.7	8.8	118	–	–	–	–	CC(C)Oc1cc(NC(=O)N(C)c2ccc(CN3CCCC3=O)c(C=O)n2)ncc1C#N [Example 23, 3-(5-cyano-4-isopropoxypyridin-2-yl)-1-(6-formyl-5-((2-oxopyrrolidin-1-yl)methyl)pyridin-2-yl)-1-methylurea]
